Molecules are shown by their SMILES.

The target in this assay is T1, human V1a receptor (Homo sapiens, UniProt P37288).
T1 construct: expressed in transfected cells; host or cells: HEK293 cells, transiently transfected; cell membranes
T1 sequence (P37288 whole entry): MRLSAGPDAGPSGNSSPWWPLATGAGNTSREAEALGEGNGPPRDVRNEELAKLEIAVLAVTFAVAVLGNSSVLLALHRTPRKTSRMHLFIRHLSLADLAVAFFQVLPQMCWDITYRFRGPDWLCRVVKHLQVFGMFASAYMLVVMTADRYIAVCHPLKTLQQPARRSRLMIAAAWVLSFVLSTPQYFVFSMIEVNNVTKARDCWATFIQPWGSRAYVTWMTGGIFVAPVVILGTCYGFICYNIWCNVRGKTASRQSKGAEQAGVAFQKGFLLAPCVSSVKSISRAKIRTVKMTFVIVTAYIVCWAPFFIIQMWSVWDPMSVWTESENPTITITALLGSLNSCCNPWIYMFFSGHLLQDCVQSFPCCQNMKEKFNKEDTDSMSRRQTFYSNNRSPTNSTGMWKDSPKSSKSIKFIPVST
The assay can be described thus: human V1a receptor binding studies (3H-Vasopressin, SPA beads). The note with it: membranes of HEK293 cells transiently transfected with human V1a receptor, Ki by Cheng-Prussoff from IC50, read-out: pKi hV1a (converted). The method in brief:
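Membranes from transiently transfected HEK293 cells expressing cloned human V1a receptor, on yttrium silicate SPA beads, competed against 4 nM 3H-vasopressin (added stock concentration) in Tris buffer with NaCl, KCl, CaCl2, MgCl2 for 1 h at room temperature. Nonspecific binding with cold vasopressin; IC50 by nonlinear fit, Ki via Cheng-Prusoff.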
On to `CCCCC1OC(N2CCC3(CC2)OC(=O)c2ccccc23)=NC1=O` (single isomer, unassigned; enantiomer a) [Example 5, 1′-[5-Butyl-4-oxo-4,5-dihydro-1,3-oxazol-2-yl]-3H-spiro[2-benzofuran-1,4′-piperidin]-3-one enantiomer A], for which the Ki is 251 nM.
On to `C=CCC1(CC(=C)F)OC(N2CCC3(CC2)OCc2ccccc23)=NC1=O` (stereo not shown) [Example 54, 5-Allyl-5-(2-fluoroallyl)-2-(3H-spiro[isobenzofuran-1,4′-piperidine]-1′-yl)oxazol-4(5H)-one], for which the Ki is 631 nM.
Then `CCCCC1(C)OC(N2CCC3(CC2)OCc2ccccc23)=NC1=O` (stereo not shown) [Example 66, 5-Butyl-5-methyl-2-(1′H,3H-spiro[2-benzofuran-1,4′-piperidin]-1′-yl)-1,3-oxazol-4(5H)-one], with 39.8 nM; and `O=C1N=C(N2CCC3(CC2)OCc2ccccc23)O[C@H]1Cc1ccccc1` [Example 19, (−)-(5S)-5-Benzyl-2-(1′H,3H-spiro[2-benzofuran-1,4′-piperidin]-1′-yl)-1,3-oxazol-4(5H)-one], with 25.1 nM.
`O=C1OC2(CCN(C3=NC(=O)C(Cc4ccccc4)O3)CC2)c2ccc(F)cc21` (stereo not shown) [Example 27, 1′-(5-Benzyl-4-oxo-4,5-dihydro-1,3-oxazol-2-yl)-5-fluoro-3H-spiro[2-benzofuran-1,4′-piperidin]-3-one]: the Ki was 15.8 nM.
`O=C1N=C(N2CCC3(CC2)OCc2ccccc23)OC1Cc1ccc(Cl)cc1` (stereo not shown) [Example 35, 5-(4-Chlorobenzyl)-2-(1′H,3H-spiro[2-benzofuran-1,4′-piperidin]-1′-yl)-1,3-oxazol-4(5H)-one]: the Ki was 2 nM.
With `O=C1N=C(N2CCC3(CC2)OCc2ccccc23)OC1CC1CCCC1` (single isomer, unassigned; enantiomer b) [Example 14, 5-(Cyclopentylmethyl)-2-(1′H,3H-spiro[2-benzofuran-1,4′-piperidin]-1′-yl)-1,3-oxazol-4(5H)-one enantiomer B], the Ki was 2.51 nM.
With `CC#CCC1(CC#CC)OC(N2CCC3(CC2)OCc2ccccc23)=NC1=O` [Example 55, 5,5-Di(but-2-ynyl)-2-(3H-spiro[isobenzofuran-1,4′-piperidine]-1′-yl)oxazol-4(5H)-one], the Ki is 5.01 nM.
As to `CC1(CC2CCCOC2)OC(N2CCC3(CC2)OCc2ccccc23)=NC1=O` (single isomer, unassigned; diastereomer a) [Example 103, (−)-5-Methyl-2-(1′H,3H-spiro[2-benzofuran-1,4′-piperidin]-1′-yl)-5-(tetrahydro-2H-pyran-3-ylmethyl)-1,3-oxazol-4(5H)-one diastereomer a], the Ki was 10 nM.
Then `CCCCCC1CCC2(CC1)OC(N1CCC3(CC1)OC(=O)c1ccccc13)=NC2=O` (single isomer, unassigned; diastereomer a) [Example 126, 1′-[4-Oxo-8-pentyl-1-oxa-3-azaspiro[4.5]dec-2-en-2-yl]-3H-spiro[2-benzofuran-1,4′-piperidin]-3-one diastereomer a], with 31.6 nM; and `O=C1OC2(CCN(C3=NC(=O)C(CC4CCCC4)O3)CC2)c2ccccc21` (single isomer, unassigned; enantiomer b) [Example 16, 1′-[5-(Cyclopentylmethyl)-4-oxo-4,5-dihydro-1,3-oxazol-2-yl]-3H-spiro[2-benzofuran-1,4′-piperidin]-3-one enantiomer B], with 12.6 nM; and `CCOC(=O)C1[C@H]2CC3(C[C@@H]12)OC(N1CCC2(CC1)OCc1ccccc12)=NC3=O` (single isomer, unassigned; diastereomer b) [Example 149, Ethyl 4′-oxo-2′-(1′H,3H-spiro[2-benzofuran-1,4′-piperidin]-1′-yl)-4′H-spiro[bicyclo[3.1.0]hexane-3,5′-[1,3]oxazole]-6-carboxylate diastereomer b], with 200 nM.
`CCCCC1(C)OC(N2CCC3(CC2)OCc2ccccc23)=NC1=O` (single isomer, unassigned; (+)) [Example 67, (+)-5-Butyl-5-methyl-2-(1′H,3H-spiro[2-benzofuran-1,4′-piperidin]-1′-yl)-1,3-oxazol-4(5H)-one]: the Ki was 25.1 nM.
Consider `CC1(C(O)c2ccc(Cl)cc2)OC(N2CCC3(CC2)OC(=O)c2ccccc23)=NC1=O` (stereo not shown) [Example 93, 1′-{5-[(4-Chlorophenyl)(hydroxy)methyl]-5-methyl-4-oxo-4,5-dihydro-1,3-oxazol-2-yl}-3H-spiro[2-benzofuran-1,4′-piperidin]-3-one], for which the Ki is 126 nM.
Then `CC1(C(F)c2ccc(Cl)cc2)OC(N2CCC3(CC2)OCc2ccccc23)=NC1=O` (stereo not shown) [Example 92, 5-[(4-Chlorophenyl)(fluoro)methyl]-5-methyl-2-(1′H,3H-spiro[2-benzofuran-1,4′-piperidin]-1′-yl)-1,3-oxazol-4(5H)-one], with 31.6 nM; and `O=C1N=C(N2CCC3(CC2)OCc2ccccc23)OC12CCSCC2` [Example 132, 2-(1′H,3H-Spiro[2-benzofuran-1,4′-piperidin]-1′-yl)-1-oxa-8-thia-3-azaspiro[4.5]dec-2-en-4-one], with 15.8 nM; and `C=C(CC1(CC(=C)C(F)(F)F)OC(N2CCC3(CC2)OCc2ccccc23)=NC1=O)C(F)(F)F` [Example 64, 2-(3H-Spiro[isobenzofuran-1,4′-piperidine]-1′-yl)-5,5-bis(2-(trifluoromethyl)allyl)oxazol-4(5H)-one], with 12.6 nM.
With `O=C1N=C(N2CCC3(CC2)OCc2ccccc23)OC1C(O)c1ccccc1` (single isomer, unassigned) [Example 36, 5-(Hydroxy(phenyl)methyl)-2-(1′H,3H-spiro[2-benzofuran-1,4′-piperidin]-1′-yl)-1,3-oxazol-4(5H)-one diastereomer a, enantiomer A], the Ki is 31.6 nM.
On to `CC1(Cc2ccc(Cl)nc2)OC(N2CCC3(CC2)OCc2ccccc23)=NC1=O` (single isomer, unassigned; (-)) [Example 83, (−)-5-[(6-Chloropyridin-3-yl)methyl]-5-methyl-2-(1′H,3H-spiro[2-benzofuran-1,4′-piperidin]-1′-yl)-1,3-oxazol-4(5H)-one], for which the Ki was 39.8 nM.
Take `CC1(Cc2c(F)c(F)c(F)c(F)c2F)OC(N2CCC3(CC2)OCc2ccccc23)=NC1=O` (stereo not shown) [Example 88, 5-Methyl-5-(pentafluorobenzyl)-2-(1′H,3H-spiro[2-benzofuran-1,4′-piperidin]-1′-yl)-1,3-oxazol-4(5H)-one]: the Ki is 79.4 nM.
Take `O=C1N=C(N2CCC3(CC2)OCc2ccccc23)OC12CNCc1ccccc1C2` (stereo not shown) [Example 138, 2′-(1′H,3H-Spiro[2-benzofuran-1,4′-piperidin]-1′-yl)-1,2,3,5-tetrahydro-4′H-spiro[2-benzazepine-4,5′-[1,3]oxazol]-4′-one]: the Ki was 6.31 nM.
As to `O=C1N=C(N2CCC3(CC2)OCc2ccccc23)OC1c1ccccc1` (stereo not shown) [Example 12, 5-Phenyl-2-(1′H,3H-spiro[2-benzofuran-1,4′-piperidin]-1′-yl)-1,3-oxazol-4(5H)-one], the Ki is 316 nM.
For `O=C1N=C(N2CCC3(CC2)OCc2ccc(F)cc23)OC1Cc1ccccc1` (stereo not shown) [Example 25, 5-Benzyl-2-(6-fluoro-1′H,3H-spiro[2-benzofuran-1,4′-piperidin]-1′-yl)-1,3-oxazol-4(5H)-one], the Ki is 6.31 nM.
Regarding `CCCCC1OC(N2CCC3(CC2)OC(=O)c2ccccc23)=NC1=O` (single isomer, unassigned; enantiomer b) [Example 6, 1′-[5-Butyl-4-oxo-4,5-dihydro-1,3-oxazol-2-yl]-3H-spiro[2-benzofuran-1,4′-piperidin]-3-one enantiomer B], the Ki is 20 nM.
Then `O=C1N=C(N2CCC3(CC2)OCc2ccccc23)OC12C[C@H]1COC[C@H]1C2` (stereo partly shown) [Example 144, 2′-(1′H,3H-Spiro[2-benzofuran-1,4′-piperidin]-1′-yl)-3a,4,6,6a-tetrahydro-1H,3H,4′H-spiro[cyclopenta[c]furan-5,5′-[1,3]oxazol]-4′-one], with 79.4 nM.
Take `C=CCC1(CC(=C)C)OC(N2CCC3(CC2)OCc2ccccc23)=NC1=O` (stereo not shown) [Example 59, 5-Allyl-5-(2-methylallyl)-2-(1′H,3H-spiro[2-benzofuran-1,4′-piperidin]-1′-yl)-1,3-oxazol-4(5H)-one]: the Ki was 10 nM.
Consider `O=C1N=C(N2CCC3(CC2)c2ccccc2CS3(=O)=O)OC12Cc1ccccc1C2` [Example 150, 2′-(2,2-Dioxido-1′H,3H-spiro[2-benzothiophene-1,4′-piperidin]-1′-yl)-1,3-dihydro-4′H-spiro[indene-2,5′-[1,3]oxazol]-4′-one], for which the Ki was 0.251 nM.
Then `O=C1N=C(N2CCC3(CC2)OCc2ccccc23)OC12C[C@@H]1OS(=O)O[C@@H]1C2` (stereo partly shown) [Example 147, 2′-(1′H,3H-Spiro[2-benzofuran-1,4′-piperidin]-1′-yl)-3a,4,6,6a-tetrahydro-4′H-spiro[cyclopenta[d][1,3,2]dioxathiole-5,5′-[1,3]oxazol]-4′-one 2-oxide], with 158 nM; and `O=C1N=C(N2CCC3(CC2)OCc2cccnc23)OC1Cc1ccccc1` (stereo not shown) [Example 29, 5-Benzyl-2-(1′H,5H-spiro[furo[3,4-b]pyridine-7,4′-piperidin]-1′-yl)-1,3-oxazol-4(5H)-one], with 10 nM; and `O=C1N=C(N2CCC3(CC2)OCc2ccccc23)OC12CCC(F)(F)CC2` [Example 130, 8,8-Difluoro-2-(1′H,3H-spiro[2-benzofuran-1,4′-piperidin]-1′-yl)-1-oxa-3-azaspiro[4.5]dec-2-en-4-one], with 6.31 nM.
Turning to `CCOC(=O)C1=CCC2(C1)OC(N1CCC3(CC1)OCc1ccccc13)=NC2=O` (stereo not shown) [Example 116, Ethyl 4-oxo-2-(1′H,3H-spiro[2-benzofuran-1,4′-piperidin]-1′-yl)-1-oxa-3-azaspiro[4.4]nona-2,7-diene-7-carboxylate], the Ki is 126 nM.

The record behind these values is patent US9828385B2, “Spiro-oxazolones” (Hoffmann-La Roche Inc., priority 2014, dated 2017).
